This note sets out measurements from PMC10348910, “Epigenetic reprogramming of cell cycle genes by ACK1 promotes breast cancer resistance to CDK4/6 inhibitor” (Oncogene, 2023).

For test [1], the system named is normal breast cell line, MCF10A. The test is described as follows: proliferation assay, trypan blue exclusion. The class given is cell-based. To be noted: Homo sapiens, MCF-10A, 96 h. On the procedure:
(§1) Fig. 2 ACK1 regulates breast cancer transcriptome, affecting genes implicated in cell cycle progression. A Chemical structure of (R)-9b. B Breast cancer cell lines were treated with either vehicle or (R)-9b overnight and cell lysates were subjected to immunoprecipitation using ACK1 antibody, followed by immunoblotting with pY284-ACK1 antibody. Lysates were also subjected to immunoblotting with total ACK1 and Actin antibodies, shown in the lower panels. […] C Breast cancer cell lines were treated with varying concentrations of (R)-9b for 96 h and the cell proliferation was measured using Trypan Blue exclusion method. […]
(§2) For proliferation assay, 5 × 10^4 cells were plated in 6-well plate and treated with either vehicle (DMSO) or varying concentrations of (R)-9b or palbociclib in complete media for 96 h and number of viable cells were counted by trypan blue exclusion assay. […] The cells were acquired using the BD FACSCalibur machine (BD Biosciences) and data was analyzed using FlowJo software. […] The data were analyzed using FlowJo software.
(§3) No data was excluded from the analysis. […] Data were expressed as the mean ± SEM. Data between two groups were analyzed with unpaired Student’s t tests using Graphpad Prism (Graphpad Software Inc, California, USA). […]

The subject of another test is breast cancer cell lines. The test is described as follows: proliferation assay, trypan blue exclusion. The following applies: 96 h. The class given is cell-based. The protocol: as §1, §2, §3
A further test concerns Cal-148 xenografts. Nature of the test: Cal-148 xenograft in mammary fat pad. The class given is in vivo, female SCID mice. The following applies: 24 mg/Kg subcutaneously, 4 weeks. The protocol:
In order to assess the in vivo implications of ACK1 inhibition in TNBCs, Cal-148 xenografts were established in mammary fat pad of female SCID mice. Once the tumors were palpable, the mice were injected subcutaneously with 24 mg/Kg of (R)-9b for 4 weeks and the tumor volumes were measured. On reaching the endpoint, the mice were sacrificed and the tumors were harvested, weighed and photographed. […] RNA was prepared from the tumors, followed by qRT-PCR.
Fig. 6 (R)-9b inhibits breast cancer xenograft tumor growth in vivo. A 2 × 10^6 Cal-148 cells were injected in the 4th inguinal mammary fat pad of female SCID mice. Once the tumors were palpable, the mice were treated subcutaneously with either vehicle (Captisol; n = 8) or (R)-9b at 24 mg/Kg (n = 8) five times a week, for 4 weeks. The tumor volumes were measured twice a week. B, C The tumors were harvested and photographed, and the weights were recorded. D RNA was prepared from the tumors, followed by qRT-PCR to determine the levels of CCNB1, CCNB2 and CDC20 mRNA (n = 3 each). […] The tumors were harvested, their weights were recorded and photographed. […]
(§4) All animal experiments were performed using the standards for humane care in accordance with the NIH Guide for the Care and Use of Laboratory Animals. […] Tumor volumes were measured twice a week using calipers. […]

For another test, the system named is MCF7 xenografts. Nature of the test: MCF7 xenograft in mammary fat pad. The class given is in vivo, female SCID mice. To be noted: orally 36 mg/Kg or subcutaneously 24 mg/Kg. On the procedure: Fig. 6 (R)-9b inhibits breast cancer xenograft tumor growth in vivo. A 2 × 10^6 Cal-148 cells were injected in the 4th inguinal mammary fat pad of female SCID mice. Once the tumors were palpable, the mice were treated subcutaneously with either vehicle (Captisol; n = 8) or (R)-9b at 24 mg/Kg (n = 8) five times a week, for 4 weeks. The tumor volumes were measured twice a week. B, C The tumors were harvested and photographed, and the weights were recorded. D RNA was prepared from the tumors, followed by qRT-PCR to determine the levels of CCNB1, CCNB2 and CDC20 mRNA (n = 3 each). E and F 2 × 10^6 MCF7 cells were injected in the 4th inguinal mammary fat pad of female SCID mice with continuous supplementation of estrogen. Once the tumors were palpable, the mice were treated with vehicle (Captisol; n = 7), (R)-9b at 24 mg/Kg subcutaneously (n = 8), or orally with (R)-9b at 36 mg/Kg (n = 8), five times a week, for 4 weeks. The tumors were harvested, their weights were recorded and photographed. G Tumor lysates were subjected to immunoblotting using pACK1, CCNB1, CCNB2, CDC20 and Actin antibodies (n = 3 each). H RNA was prepared from the tumors, followed by qRT-PCR to determine the levels of CCNB1, CCNB2 and CDC20 mRNA (n = 3 each). Data are represented as the mean ± SEM. *p < 0.05; **p < 0.01; ***p < 0.001. For (C) and (D), unpaired two-tailed Student’s t test, and for (E) and (H), one way ANOVA was performed.
In addition, effect of (R)-9b was assessed in ER^+/PR^+ breast cancer xenografts. Briefly, MCF7 cells were implanted in mammary fat pad of female SCID mice. Once the tumors were palpable, the mice were treated orally (36 mg/Kg) or injected subcutaneously with 24 mg/Kg of (R)-9b for 4 weeks. […] Further, RNA was isolated from the xenograft tumors and CDC20, CCNB1 and CCNB2 mRNA levels were examined.
as §4

As for `CN1CCN(c2ccc(Nc3ncc(Cl)c(NC[C@H]4CCCO4)n3)cc2)CC1` [(R)-9b], the values for the IC50 (in test [1]; in the test with breast cancer cell lines) were 1.49 µM and 0.25 to 1.22 µM, respectively. Further, the “CCNB1, CCNB2 and CDC20 mRNA levels in tumors” value in the test with Cal-148 xenografts is “significant decrease”. Also, the figures for the xenograft tumor growth entry in the test with Cal-148 xenografts (five times a week) and in the test on MCF7 xenografts (4 weeks) were “significant suppression” and “significant loss of tumor growth”, respectively. Besides, the “CDC20, CCNB1 and CCNB2 mRNA levels in tumors” value with MCF7 xenografts is “significant reduction”. For the same molecule, in the test on MCF7 xenografts, the “CDC20, CCNB1 and CCNB2 protein levels in tumor lysates” value is on record as “marked decrease”.
